Measured values from ChEMBL document CHEMBL3046187, “Challenges in docking 2-hydroxy and 2,4-dihydroxychalcones into the binding site of ALR2” (Med Chem Res, 2013).

Molecular target: Aldo-keto reductase family 1 member B1 (Homo sapiens, UniProt P15121)
Assay: Inhibition of Homo sapiens (human) aldose reductase

| IC50 [nM] | SMILES |
| --- | --- |
| 374 | CC1=C(CC(=O)O)c2cc(F)ccc2/C1=C\c1ccc([S+](C)[O-])cc1 (stereo not given) [SULINDAC] |
| 2390 | Cc1ccc(C(=O)c2ccc(CC(=O)O)n2C)cc1 [TOLMETIN] |

Molecular target: Aldo-keto reductase family 1 member B1 (Rattus norvegicus, UniProt P07943)
Assay: Inhibition of Rattus norvegicus (rat) lens aldose reductase

| IC50 [nM] | SMILES |
| --- | --- |
| 4250 | O=C(/C=C/c1ccc(O)cc1)c1ccccc1O |
| 380 | O=C(/C=C/c1ccccc1O)c1ccc(O)cc1O |
| 930 | COc1ccc(/C=C/C(=O)c2ccc(O)cc2O)cc1 |
| 1120 | O=C(/C=C/c1ccc(Br)cc1)c1ccc(O)cc1O |
| 1010 | O=C(/C=C/c1ccc(O)cc1)c1cc(Cl)ccc1O |
| 11500 | O=C(/C=C/c1ccccc1)c1cc(Cl)ccc1O |
| 14800 | COc1ccc(/C=C/C(=O)c2cc(Cl)ccc2O)cc1 |
| 810 | Cc1ccc(/C=C/C(=O)c2ccc(O)cc2O)cc1 |
| 580 | O=C(/C=C/c1cc(O)ccc1O)c1ccc(O)cc1O |
| 13700 | O=C(/C=C/c1ccc(Cl)cc1)c1cc(Cl)ccc1O |
| 1150 | CN(C)c1ccc(/C=C/C(=O)c2ccc(O)cc2O)cc1 |
| 1210 | O=C(/C=C/c1ccc(Cl)c(Cl)c1)c1ccc(O)cc1O |
| 910 | COc1ccc(/C=C/C(=O)c2ccc(O)cc2O)cc1F |
| 400 | Cc1ccc(/C=C/C(=O)c2ccc(O)cc2O)c(C)c1 |
| 750 | O=C(/C=C/c1ccc(O)c(O)c1O)c1ccc(O)cc1O |
| 1250 | O=C(/C=C/c1ccccc1O)c1cc(Cl)ccc1O |
| 10500 | O=C(/C=C/c1cccc(O)c1)c1cc(Cl)ccc1O |
| 10200 | Cc1cccc(/C=C/C(=O)c2cc(Cl)ccc2O)c1 |
| 9800 | Cc1ccc(/C=C/C(=O)c2cc(Cl)ccc2O)cc1 |

| IC50 [nM] | SMILES |
| --- | --- |
| 7800 | Cc1ccc(/C=C/C(=O)c2cc(Cl)ccc2O)c(C)c1 |
| 850 | O=C(/C=C/c1ccc(O)cc1O)c1cc(Cl)ccc1O |
| 10900 | COc1ccc(/C=C/C(=O)c2cc(Cl)ccc2O)cc1F |
| 11800 | COc1ccc(/C=C/C(=O)c2cc(Cl)ccc2O)cc1OC |
| 550 | O=C(/C=C/c1ccc(O)c(O)c1)c1cc(Cl)ccc1O |
| 8200 | COc1ccc(/C=C/C(=O)c2cc(Cl)ccc2O)c(OC)c1OC |
| 2230 | O=C(/C=C/c1ccc(O)c(O)c1O)c1cc(Cl)ccc1O |
| 5390 | O=C(/C=C/c1ccc(O)cc1)c1cc(O)ccc1O |
| 3180 | COc1ccc(O)c(C(=O)/C=C/c2ccc(O)cc2)c1 |
| 3270 | COc1cccc(O)c1C(=O)/C=C/c1ccc(O)cc1 |
| 4380 | Cc1ccc(O)c(C(=O)/C=C/c2ccc(O)cc2)c1 |
| 2150 | O=C(/C=C/c1ccc(O)cc1)c1cc(Br)ccc1O |
| 3210 | O=C(/C=C/c1ccc([N+](=O)[O-])cc1)c1ccc(O)cc1O |
| 5240 | COc1ccc(C(=O)/C=C/c2ccc(O)cc2)c(O)c1 |
| 160 | O=C(/C=C/c1ccc(O)cc1O)c1ccc(O)cc1O |
| 1050 | COc1ccc(/C=C/C(=O)c2ccc(O)cc2O)cc1OC |
| 1010 | O=C(/C=C/c1ccccc1)c1ccc(O)cc1O [2',4'-DIHYDROXYCHALCONE] |
| 450 | O=C(/C=C/c1ccc(O)c(O)c1)c1ccc(O)cc1O [BUTEIN] |
| 400 | O=C(/C=C/c1ccc(O)cc1)c1ccc(O)cc1O [ISOLIQUIRITIGENIN] |
